From PubChem BioAssay (NCI)
Values joined by “and” are separate entries in the source; they are usually repeats but may differ in a detail not shown here. Identical values can stand only once.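 Five concentrations, 48 hours, 96-well plates. Abbreviation: GI50, concentration required for 50% inhibition of growth. TGI is the concentration that stops growth completely.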

What was measured:
Experiment in all cases: NCI anticancer screen, dose series, 48 h
CAKI-1 renal = test system: CAKI-1 renal
DMS 114 small cell lung = test system: DMS 114 small cell lung
M19-MEL melanoma = test system: M19-MEL melanoma
HCT-116 colon = test system: HCT-116 colon
DMS 273 small cell lung = test system: DMS 273 small cell lung
SW-620 colon = test system: SW-620 colon
SK-MEL-28 melanoma = test system: SK-MEL-28 melanoma
DLD-1 colon = test system: DLD-1 colon
MOLT-4 leukemia = test system: MOLT-4 leukemia
NCI-H522 lung = test system: NCI-H522 lung
SK-MEL-2 melanoma = test system: SK-MEL-2 melanoma
MDA-MB-435 = test system: MDA-MB-435

SMILES	TGI (CAKI-1 renal)	TGI (DMS 114 small cell lung) [µM]	TGI (M19-MEL melanoma) [µM]	TGI (HCT-116 colon)	TGI (DMS 273 small cell lung) [µM]	TGI (SW-620 colon)	TGI (SK-MEL-28 melanoma)	TGI (DLD-1 colon) [µM]	TGI (MOLT-4 leukemia)	TGI (NCI-H522 lung)	TGI (SK-MEL-2 melanoma)	GI50 (MOLT-4 leukemia) [µM]	GI50 (CAKI-1 renal)	GI50 (HCT-116 colon)	GI50 (NCI-H522 lung)	GI50 (SW-620 colon)	GI50 (SK-MEL-28 melanoma)	GI50 (MDA-MB-435) [µM]	TGI (MDA-MB-435)	GI50 (SK-MEL-2 melanoma)
CCCCCCCCOCC(O)COC(=O)CCCCCCC (stereo unspecified)	> 100 µM	> 100	> 100	> 100 µM	> 100	> 100 µM	> 100 µM	> 100	> 100 µM											
CCOC(=O)CSC(=O)NCCCl	> 100 µM	> 100		> 100 µM	> 100	> 100 µM	> 100 µM	> 100	> 100 µM	> 100 µM	> 100 µM	> 100								
CC1=CC(=C(c2ccc(N)cc2)c2ccc(N)cc2)C=CC1=N	13.9 µM and 51.7 µM and 35.6 µM	12.9	14.5	4.15 µM and 25.7 µM and 9.14 µM		11.8 µM and 38.8 µM and 16 µM	7.89 µM and 36.8 µM and 19.6 µM	> 100	6.77 µM and > 67 µM	17.8 µM and 7.03 µM	7.73 µM and 12.2 µM and 5.84 µM	1.49	3.35 µM and 8.97 µM	0.457 µM and 2.8 µM	1.8 µM and 2.26 µM	0.668 µM and 3.25 µM	0.789 µM and 4.57 µM	0.969	10.2 µM and > 44.8 µM and 15.6 µM	2.32 µM and 2.71 µM
CC(/C(=N\Nc1ccccc1)c1ccc(O)cc1)C1C(=O)Oc2ccccc21 (stereo unspecified)	> 100 µM	> 100	> 100	> 100 µM	> 100	> 100 µM		> 100	> 100 µM		> 100 µM									
COC(=O)C(C(=O)C(=O)Nc1nc(=S)[nH][nH]1)c1csc(-n2nc(-c3ccccc3)cc2-c2ccccc2)n1 (stereo unspecified)	> 100 µM		> 100	> 100 µM	> 100	> 100 µM		> 100	> 100 µM	> 100 µM										
COC(=O)C(CC(C)C)NC(=O)NC12CC3CC(CC(F)(C3)C1)C2 (stereo unspecified)		> 100	> 100	> 100 µM		> 100 µM	> 100 µM	> 100	> 100 µM	> 100 µM	> 100 µM									
CS(=O)(=O)Nc1ccc(-c2cc(-c3ccccc3)cc(C(N)=O)c2N)cc1	> 25 µM			> 25 µM		> 25 µM	> 25 µM		> 25 µM	> 25 µM	> 25 µM	19.5	> 22.6 µM	> 25 µM	15.3 µM	> 25 µM	> 25 µM	> 25	> 25 µM	> 25 µM
CC1C[C@H](C)CC(C(O)CC2CC(=O)N(Cc3ccccc3)C(=O)C2)C1O (stereo partly specified)	> 100 µM	> 100	> 100	> 100 µM	> 100	> 100 µM	> 100 µM	> 100	> 100 µM	> 100 µM										
O=C(c1ccccc1)N1C2CCC1C(C(F)(F)F)=C2C(F)(F)F	> 100 µM	> 100	> 100	> 100 µM	> 100	> 100 µM		> 100	> 100 µM	> 100 µM										
NC(=O)c1ccc(NN=O)nc1	> 100 µM			> 100 µM		> 100 µM	> 100 µM		> 100 µM	> 100 µM	> 100 µM							> 100	> 100 µM	> 100 µM
COC(=O)C(Cc1cc(OC)c(OC)c(OC)c1)c1ccc(OC)cc1 (stereo unspecified)	> 100 µM	> 100	> 100	> 100 µM	> 100	> 100 µM	> 100 µM	> 100	> 100 µM	> 100 µM										
COc1cc2nc(SCC(=O)Nc3cc(OC)c(OC)c(OC)c3)n(Cc3ccccc3)c(=O)c2cc1OC	28.8 µM			78.9 µM		> 100 µM	11.4 µM		> 100 µM	32.4 µM	10.6 µM	> 100	3.05 µM	6.74 µM	3.65 µM	> 100 µM	3.02 µM	4.91	> 100 µM	3.41 µM
COc1ccc2c(c1)[n+](=O)c(C(=O)c1ccco1)c(C(F)(F)F)n2[O-]	4.54 µM			15.1 µM		34.5 µM	94.9 µM		> 100 µM	> 100 µM	> 100 µM	> 100	0.642 µM	0.851 µM	35.6 µM	3.53 µM	12.3 µM	3.08	14.5 µM	24 µM
O=[N+]([O-])c1ccccc1N/N=C\c1c[nH]c2ccccc12	> 100 µM			> 100 µM		> 100 µM	> 100 µM		> 100 µM	> 100 µM	> 100 µM	4.42	3.93 µM	13.7 µM	11.6 µM	17.8 µM	> 100 µM	> 100	> 100 µM	26.4 µM
Clc1ccc2c(c1)N(c1ncnc3ccc(-c4cnc5[nH]ccc5c4)cc13)CC2	25.7 µM			14.7 µM		14.7 µM	27.7 µM		> 100 µM	12.5 µM	22.8 µM	0.954	3 µM	1.36 µM	0.819 µM	1.38 µM	10.2 µM	0.295	1.2 µM	2.88 µM
CCOC(=O)c1c(C)n2c(=O)cc(C)c3c(O)c(O)cc1c32	> 100 µM			35.5 µM		> 100 µM	> 100 µM		15.2 µM	16.7 µM	> 100 µM	1.34	2.2 µM	18.5 µM	3.4 µM	4.3 µM	27.2 µM	14.5	> 100 µM	20.9 µM
Cc1ccc(NC(=O)C(=O)C(C#N)c2nc(-c3ccc(-c4ccccc4)cc3)cs2)c(C)c1 (stereo unspecified)	> 100 µM	> 100	> 100	> 100 µM	> 100	> 100 µM	> 100 µM	> 100	> 100 µM		> 100 µM									
NC1CCC(Nc2nc(NCc3ccc(-c4cccs4)nc3)c3ncn(C4CCCC4)c3n2)CC1 (stereo unspecified)	9.92 µM			1.15 µM		2.03 µM	0.117 µM		0.502 µM	0.049 µM	0.288 µM	0.025	1.62 µM	0.0332 µM	< 0.016 µM	< 0.0152 µM	0.0296 µM	0.0282	1.08 µM	0.0908 µM
